Experimental data: ChEMBL document CHEMBL1130005, “Enantioselective synthesis and antiproliferative properties of an ilmofosine analog, 2'-(trimethylammonio)ethyl 3-(hexadecyloxy)-2-(methoxymethyl)propyl phosphate, on epithelial cancer cell growth” (J Med Chem, 1997)

Columns and labels:
Format in all cases: functional, cell-based
A-427 [1] = test: Inhibition of large cell lung carcinoma (A427); settings: Homo sapiens
MCF7 [2] = test: Inhibition of proliferation of breast adenocarcinoma cell line MCF-7; settings: Homo sapiens
A549 [3] = test: Inhibition of non-small-cell lung adenocarcinoma (A549); settings: Homo sapiens
A549 [4] = test: Inhibition of non-small-cell lung adenocarcinoma (A549) after 48-h treatment; settings: Homo sapiens, A549, 48 h
A-427 [5] = test: Inhibition of large cell lung carcinoma (A427) after 48-h treatment; settings: Homo sapiens, A-427, 48 h
MCF7 [6] = test: Inhibition of proliferative breast adenocarcinoma cell line MCF-7 after 48-h treatment; settings: Homo sapiens, MCF7, 48 h

Row | IC50 (A-427 [1]) [µM] | IC50 (MCF7 [2]) [µM] | IC50 (A549 [3]) [µM] | IC50 (A549 [4]) [µM] | IC50 (A-427 [5]) [µM] | IC50 (MCF7 [6]) [µM] | SMILES
1 | 20 | 2 | 10 | – | – | – | CCCCCCCCCCCCCCCCSCC(COC)COP(=O)([O-])OCC[N+](C)(C)C (racemic) [ILMOFOSINE]
2 | > 20 | 2 | 10 | – | – | – | CCCCCCCCCCCCCCCCOC[C@@H](COC)COP(=O)([O-])OCC[N+](C)(C)C
3 | – | – | – | 7.5 | 20 | 2 | CCCCCCCCCCCCCCCCOC[C@H](COC)COP(=O)([O-])OCC[N+](C)(C)C
